The values that follow come from patent US6706709B2, “Indolinone derivatives as protein kinase/phosphatase inhibitors” (Sugen, Inc., priority 2000, dated 2004).

Broadly, the IC50 is the midpoint of a concentration-inhibition curve.

Assay [1] has as its target GST-Flk1 (UniProt P35918). The experiment in a line: GST-FLK-1 bioassay (bio flkGST). Format: biochemical. The method, boiled down: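 ELISA with Sf9-expressed GST-Flk1cd (5 ng/well) phosphorylating plate-coated poly(Glu,Tyr) 4:1 in Hepes pH 7.5 with MnCl2 and ATP (2 μM as 4× stock), 15 min at room temperature; EDTA stop. Phosphotyrosine detected with PY99-HRP and ABTS at 410 nm.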

Assay [2] addresses T1, EGF Receptor (Homo sapiens, UniProt P00533).
T1 construct: expressed in transfected cells; host or cells: NIH 3T3/C7 (mouse fibroblasts engineered to express human EGF-R)
Nature of the assay: bio EGF (EGF Receptor ELISA). Format: biochemical. The procedure, abridged: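 Cells engineered to express human EGFR, seeded in 0.5% serum for ~40 h, then exposed to drug (stock diluted to 1:200 final, 1% DMSO) before 5 min EGF stimulation at 25 nM final. Lysates captured on anti-EGFR-coated plates, and phosphotyrosine detected by anti-pTyr/HRP ELISA at 410 nm. Percent inhibition calculated relative to control wells after negative-control subtraction.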

Structures are written as SMILES. A value given as a limit tells only on which side of the number the result lay.

T1 sequence (P00533 25-1210): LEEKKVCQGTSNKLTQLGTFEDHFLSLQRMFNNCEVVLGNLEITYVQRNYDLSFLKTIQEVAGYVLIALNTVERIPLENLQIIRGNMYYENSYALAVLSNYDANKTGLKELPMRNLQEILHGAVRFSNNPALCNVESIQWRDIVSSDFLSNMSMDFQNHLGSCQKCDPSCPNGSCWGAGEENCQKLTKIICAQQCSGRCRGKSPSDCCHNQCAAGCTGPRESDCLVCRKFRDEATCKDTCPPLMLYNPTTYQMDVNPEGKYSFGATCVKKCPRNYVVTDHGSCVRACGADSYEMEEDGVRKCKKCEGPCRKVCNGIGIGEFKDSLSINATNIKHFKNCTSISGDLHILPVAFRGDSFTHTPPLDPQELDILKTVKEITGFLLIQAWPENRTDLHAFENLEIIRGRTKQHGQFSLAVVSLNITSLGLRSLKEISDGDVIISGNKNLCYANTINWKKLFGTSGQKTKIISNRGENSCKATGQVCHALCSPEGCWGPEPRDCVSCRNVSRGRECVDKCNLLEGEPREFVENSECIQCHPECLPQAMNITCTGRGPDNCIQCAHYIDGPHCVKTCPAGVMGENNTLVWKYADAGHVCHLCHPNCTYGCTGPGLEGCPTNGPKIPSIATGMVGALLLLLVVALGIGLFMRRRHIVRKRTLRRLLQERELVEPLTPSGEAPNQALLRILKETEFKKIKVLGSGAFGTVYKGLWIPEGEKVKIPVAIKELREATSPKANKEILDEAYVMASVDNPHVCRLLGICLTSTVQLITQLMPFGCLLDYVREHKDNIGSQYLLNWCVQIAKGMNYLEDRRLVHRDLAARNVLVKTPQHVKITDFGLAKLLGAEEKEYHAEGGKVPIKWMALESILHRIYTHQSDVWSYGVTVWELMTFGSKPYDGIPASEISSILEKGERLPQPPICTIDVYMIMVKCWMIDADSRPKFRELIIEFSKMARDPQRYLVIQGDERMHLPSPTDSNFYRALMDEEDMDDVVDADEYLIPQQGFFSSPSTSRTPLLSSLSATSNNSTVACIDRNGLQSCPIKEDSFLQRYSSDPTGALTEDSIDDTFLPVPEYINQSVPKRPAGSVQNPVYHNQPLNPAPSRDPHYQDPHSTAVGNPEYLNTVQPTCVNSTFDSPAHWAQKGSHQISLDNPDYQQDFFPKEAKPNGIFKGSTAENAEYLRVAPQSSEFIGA

On to `CN(C)CCOc1ccc2[nH]c(C=C3C(=O)Nc4ccc(-c5ccccc5)cc43)cc2c1` [IN-005, 3-[5-(2-dimethylamino-ethoxy)-1H-indol-2-ylmethylene]-5-phenyl-1,3-dihydro-indol-2-one], for which the concentration for half-maximal inhibition (IC50) in assay [1] was determined as 0.31 µM; in assay [2], 16.3 µM.
For `CN(c1cccc(Cl)c1)S(=O)(=O)c1ccc2c(c1)C(=Cc1cc3cc(OCCN4CCCC4)ccc3[nH]1)C(=O)N2` [IN-048, 2-oxo-3-[5-(2-pyrrolidin-1-yl-ethoxy)-1H-indol-2-ylmethylene]-2,3-dihydro-1H-indole-5-sulfonic acid (3-chloro-phenyl)-methyl-amide], in that order: 1.16 µM and 2.13 µM.
For `CNS(=O)(=O)c1ccc2c(c1)C(=Cc1c[nH]c3ccccc13)C(=O)N2` [IN-068, 3-(1H-indol-3-ylmethylene)-2-oxo-2,3-dihydro-1H-indole-5-sulfonic acid methylamide], in that order: > 20 µM and > 100 µM.
For `O=C1Nc2ccc(S(=O)(=O)N3CCc4cc(Br)ccc43)cc2C1=Cc1cc2cc(OCCN3CCOCC3)ccc2[nH]1` [IN-064, 5-(5-bromo-2,3-dihydro-indole-1-sulfonyl)-3-[5-(2-morpholin-4-yl-ethoxy)-1H-indol-2-ylmethylene]-1,3-dihydro-indol-2-one], in that order: 17.8 µM and > 20 µM.
As for `CCN(CC)CCOc1ccc2[nH]c(C=C3C(=O)Nc4cc(-c5ccccc5)ccc43)cc2c1` [IN-018, 3-[5-(2-diethylamino-ethoxy)-1H-indol-2-ylmethylene]-6-phenyl-1,3-dihydro-indol-2-one], the half-inhibitory concentration (IC50) in assay [1] is 5.41 µM; in assay [2], > 100 µM.
